From paper PMC2994877, “A Full Pharmacological Analysis of the Three Turkey β-Adrenoceptors and Comparison with the Human β-Adrenoceptors” (PLoS ONE, 2010)
Read-outs that look alike come from different tables or passages of the source.

Columns and labels:
[1] = target: T1, turkey β4C-adrenoceptor (tβ4C) (Meleagris gallopavo, UniProt P43141); assay: cell-based; format: cell-based; settings: for % isop max: CRE-SPAP, % of 10 µM isoprenaline maximum
T1 construct: expressed in transfected cells

[2] = target: T1, turkey β4C-adrenoceptor (tβ4C); assay: cell-based; format: binding
[3] = target: T2, turkey β3C-adrenoceptor (tβ3C) (Meleagris gallopavo, UniProt A0A803YLI8); assay: CRE-SPAP production, CHO tβ3C cells; format: cell-based; settings: for Emax: read-out: % isop max
Human β3-adrenoceptor = settings: Human β3, given for comparison; ref 25 and 30; cited from earlier work
Human β1-adrenoceptor = target: Human β1-adrenoceptor; design: method as in PMID 15655528, PMID 20590599; settings: Human β1, given for comparison; ref 25 and 30; cited from earlier work
Human β2-adrenoceptor = target: Human β2-adrenoceptor; design: method as in PMID 15655528, PMID 20590599; settings: Human β2, given for comparison; ref 25 and 30; cited from earlier work
[4] = target: T2, turkey β3C-adrenoceptor (tβ3C); assay: 3H-CGP12177 whole cell binding, CHO tβ3C cells
[5] = tested on: parent CHO CRE-SPAP cells; assay: agonist response in parent CHO CRE-SPAP cells; format: cell-based
Description: The second piece of pharmacological evidence for more than one conformation is the concentrations of antagonists required to inhibit the CGP12177-stimulatory response. […] This is similar to observations at the β1-adrenoceptor in rodents and mammals [6]–[7] [9] [11]. […] There was no response to any ligands, including CGP12177 in the parent CHO CRE-SPAP cells and thus the CGP12177 agonist response was not occurring at a different receptor natively expressed in the cells.

[6] = target: T1, turkey β4C-adrenoceptor (tβ4C); assay: 3H-cAMP accumulation, CHO tβ4C cells; format: cell-based; settings: for % isop max: 3H-cAMP, overall response as % of 10 µM isoprenaline; for % site 1: % of response occurring via site 1, tβ4C
[7] = target: T2, turkey β3C-adrenoceptor (tβ3C); assay: cell-based
[8] = target: T2, turkey β3C-adrenoceptor (tβ3C)
parent CHO cells [9] = assay: 3H-cAMP accumulation, parent CHO cells; settings: parent CHO cells without transfected receptor
parent CHO cells [10] = assay: 3H-CGP12177 binding, parent CHO cells; settings: parent CHO cells without transfected receptor
Protocol: Cells were grown to confluence in white-sided tissue culture treated 96-well view plates. ^3H-CGP12177 whole cell binding was performed as previously described. […] For competition binding, the media was removed from each well, 100 µl of serum-free media containing the competing ligand at twice the final required concentration was added to each well followed immediately by a 100 µl of a fixed concentration of ^3H-CGP12177 (1∶2 dilution in well, final well concentrations of 1.24 nM to 12.10 nM). The cells were incubated for 2 hours at 37°C, 5% CO2 humidified atmosphere. For all plates, the cells were washed twice by the addition and removal of 200 µl 4°C phosphate buffered saline. 100 µl Microscint 20 was added to each well, a white sticky base applied to the underside and a sealant top applied to the top of the plate. The plates were left at room temperature overnight in the dark and the plates counted on a Topcount at 21°C for 2 minutes per well.

[11] = CRE-SPAP production, CHO tβ4C cells, read-out: Log EC50 (converted)
[12] = competition with 3H-CGP12177, whole cells, CHO tβ4C, given as log KD, mean ± s.e.m., read-out: Log KD (converted)
[13] = competition with 3H-CGP12177, whole cells, CHO tβ3C, given as log KD, mean ± s.e.m., read-out: Log KD (converted)

T2 sequence (A0A803YLI8 entry or part of it): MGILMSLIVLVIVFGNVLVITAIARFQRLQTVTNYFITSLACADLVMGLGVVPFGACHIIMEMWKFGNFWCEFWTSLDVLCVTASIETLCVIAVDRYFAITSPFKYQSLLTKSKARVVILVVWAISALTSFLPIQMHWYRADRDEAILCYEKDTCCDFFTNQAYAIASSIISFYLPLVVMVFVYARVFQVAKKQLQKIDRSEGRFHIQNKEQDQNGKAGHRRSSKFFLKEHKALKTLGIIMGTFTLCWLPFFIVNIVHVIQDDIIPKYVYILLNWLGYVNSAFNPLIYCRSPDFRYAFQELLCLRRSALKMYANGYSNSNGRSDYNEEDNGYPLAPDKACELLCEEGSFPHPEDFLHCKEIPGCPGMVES
T1 sequence (P43141 whole entry): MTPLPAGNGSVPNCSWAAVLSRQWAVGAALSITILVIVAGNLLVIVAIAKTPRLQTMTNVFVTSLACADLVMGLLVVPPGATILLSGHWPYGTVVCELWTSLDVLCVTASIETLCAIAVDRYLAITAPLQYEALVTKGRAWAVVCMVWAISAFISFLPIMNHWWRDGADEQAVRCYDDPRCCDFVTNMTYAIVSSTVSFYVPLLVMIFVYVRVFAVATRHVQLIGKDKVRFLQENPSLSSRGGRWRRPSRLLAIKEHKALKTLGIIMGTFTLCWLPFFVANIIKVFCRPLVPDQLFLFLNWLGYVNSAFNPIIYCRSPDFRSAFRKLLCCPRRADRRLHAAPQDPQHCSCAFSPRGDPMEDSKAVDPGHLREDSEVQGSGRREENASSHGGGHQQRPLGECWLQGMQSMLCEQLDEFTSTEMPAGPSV

Molecule	% isop max ([1]; CHO tβ4C cells) [%]	Kd [2, 12] [nM]	EC50 [3] [nM]	Emax [3] [%]	Log KD (Human β3-adrenoceptor)	Log KD (Human β1-adrenoceptor)	Log KD (Human β2-adrenoceptor)	Kd [4] [nM]	other results
CNC[C@H](O)c1ccc(O)c(O)c1 [Adrenaline]	99.6±2.7	1700	63.1	106 ± 2.7	−4.70	−5.15	−6.13	1550	EC50 [1, 11]: 191 nM
C[C@H](Cc1ccc(OCC(=O)O)cc1)NC[C@H](O)c1cccc(Cl)c1 [BRL37344]	97.1±3.0				−6.45	−5.19	−6.51		Log EC50 ([1]; CRE-SPAP production, CHO tβ4C cells): −7.15±0.07; Log KD ([2]; competition with 3H-CGP12177, whole cells, CHO tβ4C, given as log KD, mean ± s.e.m.): −5.89±0.10; Log EC50 ([3]; CRE-SPAP production, CHO tβ3C cells): −7.67±0.04; % isop max ([3]; CRE-SPAP, % of 10 µM isoprenaline maximum, CHO tβ3C cells): 88.5±4.2%; Log KD ([4]; competition with 3H-CGP12177, whole cells, CHO tβ3C, given as log KD, mean ± s.e.m.): −6.28±0.06
CC(C)(C)NCC(O)COc1cccc2[nH]c(=O)[nH]c12 (stereo not shown) [CGP12177]	53.4±2.2								agonist response [5]: no response; % isop max ([6]; tβ4C): 17.4±0.7%; % site 1 [6]: 41.3±7.2%
CC(C)(C)NCC(O)c1cc(Cl)c(N)c(Cl)c1 (stereo not shown) [Clenbuterol]	97.2±1.9		0.525	97.8 ± 4.4	−5.35	−6.62	−7.90	41.7	EC50 [1]: 40.7 nM; Kd [2]: 363 nM
CC(CCc1ccc(O)cc1)NCCc1ccc(O)c(O)c1 (stereo not shown) [Dobutamine]	110.4±2.4	1000		101 ± 3.7	−5.09	−5.23	−5.84		EC50 [1, 11]: 158 nM; EC50 ([3]; CRE-SPAP production, CHO tβ3C cells, read-out: Log EC50 (converted)): 427 nM; Kd [4, 13]: 2690 nM
CC(Cc1ccc(O)cc1)NCC(O)c1cc(O)cc(O)c1 (stereo not shown) [Fenoterol]			0.832		−5.39	−5.04	−7.03	204	EC50 [1]: 8.51 nM; Kd [2]: 603 nM
CC(C)(C)NCC(O)COc1cccc2c1CC(O)C(O)C2 (stereo not shown) [Nadolol]		18.2			−6.18	−7.23	−8.60		Kd [4, 13]: 11.2 nM
NC[C@H](O)c1ccc(O)c(O)c1 [Noradrenaline]	102.3±2.5	501	417	102 ± 3	−5.53	−5.74	−5.41	11500	EC50 [1, 11]: 81.3 nM
CC(C)(C)NC[C@H](O)COc1cccc2[nH]c(C#N)cc12 [S-Cyanopindolol]					−8.36			0.00427	EC50 [7]: 0.0251 nM; Emax ([7]; read-out: % isop max): 4.6 ± 0.7%; shape of agonist concentration response ([6]; 3H-cAMP accumulation, tβ4C): two component response; % isop max ([6]; tβ4C): 16.4±2.7%; % site 1 [6]: 44.4±2.0%; shape of agonist concentration response ([8]; 3H-cAMP accumulation, tβ3C): one-component response; Log EC502 ([8]; 3H-cAMP accumulation, tβ3C, one-component response (same value as EC501)): −10.60±0.13; % site 1 ([8]; % of response occurring via site 1, tβ3C): 100%
O=C(O)Cc1ccc(OCCNC[C@H](O)c2ccccc2)cc1 [ZD2079]		> 100000			−4.59	−4.21	>−4		Kd [4, 13]: > 100000 nM
C=C[C@@]1(C)CC(=O)[C@]2(O)[C@@]3(C)[C@@H](O)CCC(C)(C)[C@@H]3[C@H](O)[C@H](OC(C)=O)[C@@]2(C)O1 [forskolin]									3H-cAMP accumulation response (parent CHO cells [9]): 21.5±2.2 fold over basal
CC(C)(Cc1ccccc1)NCC(O)c1ccc(O)c(NS(C)(=O)=O)c1 (stereo not shown) [zinterol]		158			−6.27	−5.96	−8.04	24	
^3H-CGP12177									Kd ([2]; read-out: KD of 3H-CGP12177, saturation binding, stable CHO tβ4C cell line): 0.58 ± 0.06 nM; specific binding of 3H-CGP12177 (parent CHO cells [10]): no specific binding; Kd ([4]; read-out: KD of 3H-CGP12177, saturation binding, stable CHO tβ3C cell line): 0.29 ± 0.02 nM
